Among the data in ChEMBL document CHEMBL2095176, “GSK Tuberculosis Screening Data” are MIC90 values, retold here.

Structures are written as SMILES. Values after ≈ are worked out from the molar mass of the structure shown.

The test system of the experiment is Mycobacterium tuberculosis variant bovis BCG. Nature of the experiment: microbe, parasite or virus in culture. In kind it is functional.
Consider `Cc1ccc(C)c2nc(N3CCN(C)CC3)c(C#N)cc12`, for which the MIC90 was 9.4 µM (≈ 2.64 µg/mL).
In the case of `Cc1cccc(Cn2ccc(NC(=O)c3ccc4c(c3)OCO4)n2)c1` it was 8.2 µM (≈ 2.75 µg/mL).
The same measure for `Cc1cc(N)nc2cc(-c3ccc(CCN)cc3)ccc12`: 9.5 µM (≈ 2.64 µg/mL).
In the case of `COc1cc(/C=C/C(=O)O)ccc1OCCN1CCCCCC1` it was 7 µM (≈ 2.24 µg/mL); in that of `CCCc1cc(=O)[nH]c(-n2nc(C)cc2NC(=O)C(CC)c2ccccc2)n1` (stereo not given), 2.7 µM (≈ 1.02 µg/mL).
As for `NC(=O)C(N)Cc1c[nH]c2ccc(F)cc12` (stereo not given), the MIC90 is 2.3 µM (≈ 0.509 µg/mL).
On to `CN1CCC(COC(=O)c2cn(C)c3ccc(Cl)cc23)CC1`, for which the MIC90 came out at 8.7 µM (≈ 2.79 µg/mL).
The same measure for `NC(=O)c1cnc2ccc(S(=O)(=O)c3ccccc3)cc2c1Nc1ccc(O)cc1`: 2.9 µM (≈ 1.22 µg/mL); for `O=C(Nc1nc(-c2cccnc2)cs1)c1ccc(Br)s1`: 1.4 µM (≈ 0.513 µg/mL).
Regarding `O=C(CCC(=O)NNC(=O)c1ccco1)NNC(=O)c1ccco1`, the MIC90 turned out to be 8.6 µM (≈ 2.87 µg/mL).
`Clc1cc(N2CCN(c3ccncc3)CC2)ncn1` displayed an MIC90 of 5.1 µM (≈ 1.41 µg/mL).
For `CSc1ccccc1C(=O)Nc1nc(-c2ccccn2)cs1`, the MIC90 came out at 3.8 µM (≈ 1.24 µg/mL).
The same measure for `O=C(Nc1nnc(-c2ccc(Cl)s2)o1)c1ccc(S(=O)(=O)N2CCCCC2)cc1`: 7.3 µM (≈ 3.31 µg/mL); for `CC(C)(C)c1ccc(C(=O)Nc2nnc(-c3ccco3)o2)cc1`: 4.3 µM (≈ 1.34 µg/mL).
On to `N=C(Nc1nc(-c2ccccn2)cc2ccccc12)c1cccc(Cl)c1`, for which the MIC90 stood at 0.6 µM (≈ 0.215 µg/mL).
In the case of `Cc1ccc2nc(C)c(C(=O)NCc3ccco3)n2c1` it was 1 µM (≈ 0.269 µg/mL).
The same measure for `Cc1cc(N2CCCN(C)CC2)nc(Nc2cc(F)cc(F)c2)n1`: 3.4 µM (≈ 1.13 µg/mL); for `Cc1ccc(OCC(=O)Nc2ccc(C(=O)c3c(C)nc4sccn34)cc2)c(C)c1`: 3.9 µM (≈ 1.64 µg/mL); for `Cc1c(C(=O)[C@@H]2C[C@H]2CN(Cc2ccccn2)Cc2ccccn2)sc2ccccc12`: 7.1 µM (≈ 3.04 µg/mL).
For `Cc1ccc2nc(C(F)(F)F)c(C(=O)NCc3ccco3)n2c1`, the MIC90 amounted to 4.9 µM (≈ 1.58 µg/mL).
The same measure for `Cc1ccc(-c2ccnc(-c3cccc(-c4ccccn4)n3)c2)cc1`: 6.1 µM (≈ 1.97 µg/mL); for `CCCOc1c(Br)cc(CNCC)cc1OCC`: 7.8 µM (≈ 2.47 µg/mL).
In the case of `COc1ccc(-c2csc(NC(=O)c3cnc(SC)nc3)n2)cc1` it was 1.1 µM (≈ 0.394 µg/mL); in that of `c1ccc(-c2ccc(CNCCn3ccnc3-c3ccccc3)cc2)cc1`, 9.3 µM (≈ 3.29 µg/mL).
The same measure for `Fc1ccc2nc(Nc3nc(-c4ccccn4)cs3)sc2c1`: 1 µM (≈ 0.328 µg/mL); for `Nc1ccccc1Nc1ccc2c(c1)OCO2`: 1.7 µM (≈ 0.388 µg/mL).
On to `CC(=CC(=O)NC12CC3CC(CC(C3)C1)C2)c1cccc(Cl)c1`, for which the MIC90 amounted to 7.8 µM (≈ 2.57 µg/mL).
In the case of `O=C(Nc1nnc(-c2ccc(Cl)s2)o1)c1ccc(Br)s1` it was 3 µM (≈ 1.17 µg/mL); in that of `O=C(c1ccc(-c2cccc(OCCN3CCC(c4ccc(F)cc4)CC3)c2)cc1)N1CCCC1`, 4.4 µM (≈ 2.08 µg/mL); in that of `Cn1cc(-c2noc(CCNCCC(C)(C)C)n2)c2ccccc21`, 9.3 µM (≈ 3.04 µg/mL).
In the case of `c1ncn(-c2ccc(COc3ccc(-n4cncn4)cc3)cc2)n1` it was 6.8 µM (≈ 2.16 µg/mL); in that of `CC(C)n1ncc2c(C(=O)NCC(c3ccco3)N3CCCC3)cc(-c3ccccc3)nc21` (stereo not given), 3.6 µM (≈ 1.6 µg/mL); in that of `CC(C)N(C(=O)CSc1nc2cc(Cl)ccc2[nH]1)C(C)C`, 9.5 µM (≈ 3.1 µg/mL).
The same measure for `COc1cc(CN2CCC(Cc3nc(-c4ccc5c(c4)CCO5)no3)C2)ccc1F` (stereo not given): 6.7 µM (≈ 2.74 µg/mL); for `O=C(Nc1nc(CN2CCCCC2)cs1)c1ccccc1OCc1ccc(F)cc1`: 6.2 µM (≈ 2.64 µg/mL); for `O=c1c2sc(-c3ccc(Cl)cc3)cc2ncn1-c1ccc(OCCN2CCCC2)c(Cl)c1`: 2.1 µM (≈ 1.02 µg/mL).
`CCOc1ccccc1NC(=O)C(Cc1ccccc1)NC(=O)c1cccs1` (stereo not given) registered an MIC90 of 9 µM (≈ 3.55 µg/mL).
`O=C(NCCCn1nc(Cl)c(N2CCCNCC2)cc1=O)Nc1ccc(-c2ccccc2)cc1` gave an MIC90 of 3.7 µM (≈ 1.78 µg/mL).
The same measure for `CCSc1cccc(C(=O)Nc2nnc(-c3ccc(C)cc3C)o2)c1`: 5.2 µM (≈ 1.84 µg/mL); for `COc1ccc(CCNc2nccc(-c3cccc(OC4CCNCC4)c3)n2)cc1`: 4.4 µM (≈ 1.78 µg/mL).
The same measure for `Cc1n[nH]c(C)c1S(=O)(=O)Nc1ccc2c[nH]nc2c1`: 6.2 µM (≈ 1.81 µg/mL); for `Cc1cc(C)c2nc3c(cc2c1)CN(Cc1ccco1)C(=O)O3`: 9 µM (≈ 2.78 µg/mL); for `Cc1cccc(C)c1CNc1c(C(N)=O)cnc2c(C)cccc12`: 5.9 µM (≈ 1.88 µg/mL).
In the case of `COc1ccc(-c2nsc(SCC(=O)N3CCCC3)n2)cc1` it was 5.6 µM (≈ 1.88 µg/mL).
As to `Br.CCCc1cc(C(C)=O)ccc1OCCCON1C(=N)N=C(N)NC1(C)C`, the MIC90 was found to be 8.8 µM.
Regarding `COc1cc2ccccc2cc1C(=O)NCc1cccc(-c2ccccc2OC)c1`, the MIC90 was found to be 3.6 µM (≈ 1.43 µg/mL).
In the case of `CC(=O)Oc1ccc(Cn2cc(C(=O)NCc3ccccc3)sc2=O)cc1`, the MIC90 was determined as 6.9 µM (≈ 2.64 µg/mL).
The same measure for `FC(F)(F)c1cc(SCc2ccccc2)nc(-c2ccccn2)n1`: 7.1 µM (≈ 2.47 µg/mL); for `CSc1ccc(CC(=O)Nc2nc(-c3ccccn3)cs2)cc1`: 9.1 µM (≈ 3.11 µg/mL); for `Cc1ccc(C)c(-c2nnc(NC(=O)c3ccc4c(c3)CCCC4)o2)c1`: 3 µM (≈ 1.04 µg/mL).
In the case of `Nc1cc(OCc2ccccc2)ccc1Nc1ccccc1` it was 2.1 µM (≈ 0.61 µg/mL).
In the case of `CN1CC[C@@H](Oc2cc(-c3noc(-c4ccc(Br)s4)n3)ccc2C(F)(F)F)C1` it was 8.4 µM (≈ 3.98 µg/mL); in that of `CC(Sc1nc2ccccc2[nH]1)C(=O)NNC(=O)c1ccncc1` (stereo not given), 1.6 µM (≈ 0.546 µg/mL).
Regarding `CC1(C)NC(N)=NC(=N)N1OCCCOc1ccc2ccccc2c1`, the MIC90 is 9.5 µM (≈ 3.24 µg/mL).
In the case of `Cc1ccc(N2CCN(CCOc3cccc(-c4ccc(C(=O)N5CCCC5)cc4)c3)CC2)cc1C` it was 2.4 µM (≈ 1.16 µg/mL); in that of `COc1ccc(-c2ccc(Nc3cccc(S(=O)(=O)CCN(C)Cc4ccccc4)c3)nc2)cn1`, 7.4 µM (≈ 3.62 µg/mL).
The same measure for `O=C(NNC(=O)c1cccs1)c1ccc(Oc2ccccc2)cc1`: 4.4 µM (≈ 1.49 µg/mL); for `O=C(Nc1nnc(SCc2ccc(F)cc2)s1)c1ccccn1`: 4.6 µM (≈ 1.59 µg/mL).
In the case of `Cc1cc(O)nc(-n2nc(C)cc2NC(=O)c2cc3ccccc3o2)n1` it was 6.2 µM (≈ 2.17 µg/mL).
In turn, `CCc1c(C)nc(-n2nc(C)cc2NC(=O)c2ccccc2SC)[nH]c1=O` showed an MIC90 of 3.6 µM (≈ 1.38 µg/mL).
The same measure for `O=S(=O)(NCC1CCCO1)c1ccc(-c2ccc(CN3CCOCC3)cc2)s1` (stereo not given): 4.1 µM (≈ 1.73 µg/mL); for `Cc1cc(OCC(=O)Nc2ccccc2)c2cc(Br)ccc2n1`: 2 µM (≈ 0.742 µg/mL).
In the case of `CCOc1ccc(C(=O)Nc2ccc3c(c2)C(C)N(C)CC3)cc1Br` (stereo not given) it was 4 µM (≈ 1.61 µg/mL).
In the case of `Cc1cc(C)c2cc(CN(Cc3cccnc3)C(=O)c3ccccc3F)c(Cl)nc2c1` it was 1.7 µM (≈ 0.738 µg/mL); in that of `COc1ccc(-c2ccc(Nc3cccc(S(=O)(=O)CCNCc4nccn4C)c3)nc2)cn1`, 4.3 µM (≈ 2.06 µg/mL); in that of `Cc1ccc(Cl)cc1Oc1ccncc1CNc1ccccc1S(C)(=O)=O`, 7.1 µM (≈ 2.86 µg/mL).
In turn, `O=C(c1cccc(-n2cnnn2)c1)N1CCCCC1c1nc2ccccc2s1` (stereo not given) registered an MIC90 of 8 µM (≈ 3.12 µg/mL).
The compound `COc1cccc(C(=O)N(Cc2cccnc2)Cc2cc3c(C)cc(C)cc3nc2Cl)c1` displayed an MIC90 of 3.1 µM (≈ 1.38 µg/mL).
The same measure for `Cc1cc(C)n(-c2nc(C)c(Br)c(N(C)CCO)n2)n1`: 4.7 µM (≈ 1.6 µg/mL); for `Cc1cc(/C=C/c2cccc(C(=O)O)c2)cc(Cl)c1OC1CCN(C)C1` (stereo not given): 8 µM (≈ 2.97 µg/mL); for `Cc1ccc2nc(N(CCCn3ccnc3)C(=O)C=Cc3cccs3)sc2c1`: 8.2 µM (≈ 3.35 µg/mL).
The same measure for `Nc1nc(N)c2c(Sc3ccc4ccccc4c3)cccc2n1`: 4.4 µM (≈ 1.4 µg/mL); for `O=C(CCCSc1ccccc1)NNC(=O)c1cccs1`: 3.6 µM (≈ 1.15 µg/mL).
In the case of `CNC1=NC(=O)[C@H]([C@H](C)c2c[nH]c3ccccc23)O1` [INDOMYCIN] it was 5 µM (≈ 1.29 µg/mL).
For `Cl.O=C(c1ccco1)N(CCCn1ccnc1)c1nc2c(Cl)cccc2s1`, the MIC90 stood at 7.2 µM.
The same measure for `Cc1cc(C)n(-c2nc3ccccc3c(=O)[nH]2)n1`: 3.3 µM (≈ 0.793 µg/mL).
The same measure for `CN(Cc1nc2ccccc2s1)C(=O)c1cccc(NC(=O)c2ccncc2)c1`: 1.7 µM (≈ 0.684 µg/mL).
The same measure for `CCCCOc1ccc(NC(=O)C2CCCCC2)cc1`: 8.1 µM (≈ 2.23 µg/mL); for `COc1cc(CN2CCC3(C=Cc4ccccc43)CC2)cc2c1OCO2`: 3.1 µM (≈ 1.08 µg/mL); for `O=C(NCCCn1nc(Cl)c(N2CCCNCC2)cc1=O)c1ccc(-c2ccccc2)cc1`: 10 µM (≈ 4.66 µg/mL).
Take `CCOc1ccc(-c2nnc(NC(=O)c3cnc(Cl)c(Cl)c3)o2)cc1`: the MIC90 is 9.6 µM (≈ 3.64 µg/mL).
With `CC(=O)NCCn1c(Sc2ccnc(N3CCN(c4ccncc4)CC3)n2)nnc1-c1ccco1`, the MIC90 is 2.6 µM (≈ 1.28 µg/mL).
The same measure for `CC(C)n1ncc2c(C(=O)NCC(c3cccs3)N3CCOCC3)cc(-c3ccccc3)nc21` (stereo not given): 2.5 µM (≈ 1.19 µg/mL).
In the case of `CC(C)(C)c1ccc(-c2nnc(SCC(=O)OC3CCCCC3)o2)cc1` it was 8.1 µM (≈ 3.03 µg/mL); in that of `Cc1cccc(-c2nc(Nc3ccncn3)c3c(C)csc3n2)n1`, 0.3 µM (≈ 0.1 µg/mL); in that of `O=C(/C=C/c1ccc(OC(F)(F)F)cc1)NC1CCN(c2ncccc2C(F)(F)F)CC1`, 3.8 µM (≈ 1.75 µg/mL).
The same measure for `O=C(COc1ccc(F)cc1Cl)Nc1nc(-c2ccccn2)cs1`: 3.9 µM (≈ 1.42 µg/mL).
As to `O=C(NC1CCNCC1)c1nn(-c2ccc(Cl)cc2)c(=O)cc1N1CCC(Cc2ccccc2)CC1`, the MIC90 is 7.6 µM (≈ 3.85 µg/mL).
The same measure for `CN(Cc1ccccc1)c1ccc2nnc(-c3ccccc3)n2n1`: 9.9 µM (≈ 3.12 µg/mL).
In the case of `COc1ccccc1N1CCN(c2cccc3c2nc(/C=C/c2ccncc2)n3C2CCNCC2)CC1` it was 5.5 µM (≈ 2.72 µg/mL); in that of `O=C(C=Cc1cccs1)N1CCN(Cc2ccc(Br)s2)CC1`, 2.8 µM (≈ 1.11 µg/mL); in that of `CNc1nc(SCC(=O)N(C)Cc2ccc(Cl)s2)nc2ccccc12`, 8.9 µM (≈ 3.5 µg/mL).
The same measure for `CS(=O)(=O)c1oc(-c2cccs2)nc1S(=O)(=O)c1ccc(F)cc1`: 6.9 µM (≈ 2.67 µg/mL); for `CC(C)Oc1ccc(C(=O)Nc2nc(-c3ccccn3)cs2)cc1`: 4.1 µM (≈ 1.39 µg/mL).
For the compound `O=C(COc1ccc2c(c1)CCC2)NNC(=O)c1cccs1`, the MIC90 is 4.2 µM (≈ 1.33 µg/mL).
In the case of `CCOc1ccc(NC(=O)N(C2CCCCC2)C(C)c2cccnc2)cc1` (stereo not given) it was 7.2 µM (≈ 2.65 µg/mL).
`CCCCOc1ccc(S(=O)(=O)NCCCn2nc(Cl)c(N3CCCNCC3)cc2=O)cc1` showed an MIC90 of 4.4 µM (≈ 2.19 µg/mL).
In the case of `O=C(NCc1ccc(Oc2ccccc2)cc1)c1c(C(F)(F)F)nc2ccccn12` it was 0.2 µM (≈ 0.0823 µg/mL); in that of `O=C(NCc1ccccc1)N1CCN(Cc2ccc3c(c2)OCO3)CC1`, 4.9 µM (≈ 1.73 µg/mL).
The same measure for `Clc1ccc(-c2nnc3sc(Cc4cccs4)nn23)cc1`: 7.5 µM (≈ 2.5 µg/mL).
